How the values were obtained:
[1] = Osmolality of aqueous solutions; type: physicochemical
rat = test: ED50 after intracisternal (i.cis.) administration; type: in vivo
[2] = Viscosity of aqueous solutions; type: physicochemical
Iodine content = type: physicochemical; conditions: for Iodine Content (%): comparison table with IOTROLAN
Sprague-Dawley rats = test: Intravenous toxicity, lethal dose for 50% of the animals; type: in vivo; conditions: i.v. via the caudal vein at 2.2ml/min, mortality during seven days

| SMILES | Osmolality mosm/kg at 300mg I/ml [1] | Osmolality (mOsm/kg at 300 mg I/ml) 37°C [1] | ED50, rat i.cis. (mg I/kg) (rat) | Viscosity (mPa.S at 300 mg I/ml) 37°C [2] | Viscosity mPa s (30°C) at 300mg I/ml [2] | % Iodine (Iodine content) | Iodine Content (%) (Iodine content) | LD50, rat i.v. (g I/kg) (Sprague-Dawley rats) |
| --- | --- | --- | --- | --- | --- | --- | --- | --- |
| CN(CC(=O)N(C)c1c(I)c(C(=O)NCC(O)CO)c(I)c(C(=O)NCC(O)CO)c1I)C(=O)c1c(I)c(NC(=O)CO)c(I)c(C(=O)NCC(O)CO)c1I (centres unmarked) [EXAMPLE 11, N,N'-bis-(2,3-dihydroxypropyl)-5-{3-[N-(2,3-dihydroxypropyl)carbamoyl]-5-hydroxyacetamido-2,4,6-triiodobenzoyl-N-methylaminoacetyl-N-methylamino}-2,4,6-triiodo isophthalamide] | 152 mosm/kg | 152 mOsm/kg | 500 mg I/kg | 7,0 mPa.S | 6,9 mPa s | 52% | 52,1% | 23 g I/kg |
| CN(C(=O)CC(=O)N(C)c1c(I)c(C(=O)NC(CO)C(O)CO)c(I)c(C(=O)NC(CO)C(O)CO)c1I)c1c(I)c(C(=O)NC(CO)C(O)CO)c(I)c(C(=O)NC(CO)C(O)CO)c1I (stereo not drawn) [IOTROLAN, N,N'-dimethyl-N,N'-bis[3,5-(l-hydroxymethyl-2,3-dihydroxy-propyl-carbamoyl) -2,4,6-triiodo-phenyl]-diamide of malonic acid, reference compound] |  | 320 mOsm/kg | 315 mg I/kg | 8,1-9,2 mPa.S |  |  | 47% | 25-28 g I/kg |
| CC(=O)Nc1c(I)c(C(=O)NCC(O)CO)c(I)c(C(=O)N(CC(=O)Nc2c(I)c(C(=O)NCC(O)CO)c(I)c(C(=O)NCC(O)CO)c2I)CC(O)CO)c1I (centres unmarked) [EXAMPLE 36, N,N-bis-(2,3-dihydroxypropyl)-5-{3-[N-(2,3-dihydroxypropyl)carbamoyl]-5-acetamido-2,4,6-triiodobenzoyl-N-(2,3-dihidroxypropyl)aminoacetamido}-2,4,6-triiodoisophthalamide] | 125 mosm/kg | 125 mOsm/kg | 550 mg I/kg | 8,3-8,8 mPa.S | 8,8 mPa s | 51% | 51,0% | 25-27 g I/kg |
| COCC(=O)Nc1c(I)c(C(=O)NCC(O)CO)c(I)c(C(=O)N(C)CC(=O)N(C)c2c(I)c(C(=O)NC(CO)C(O)CO)c(I)c(C(=O)NC(CO)C(O)CO)c2I)c1I (centres unmarked) [EXAMPLE 9, N,N'-bis-(1-hydroxymethyl-2,3-dihydroxypropyl)-5-{3-[N-(2,3-dihydroxypropyl)carbamoyl]-5-methoxyacetamido-2,4,6-triiodobenzoyl-N-methylaminoacetyl-N-methylamino}-2,4,6-tri-iodoisophthalamide] | 226 mosm/kg | 226 mOsm/kg | 350 mg I/kg | 8,2 mPa.S | 8,2 mPa s | 49,6% | 49,6% | 20-25 g I/kg |
| O=C(CN(CC(O)CO)C(=O)c1c(I)c(NC(=O)CO)c(I)c(C(=O)NCC(O)CO)c1I)Nc1c(I)c(C(=O)NCC(O)CO)c(I)c(C(=O)NCC(O)CO)c1I (centres unmarked) [EXAMPLE 13, N,N'-bis-(2,3-dihydroxypropyl)-5-{3-[N-(2,3-dihydroxypropyl)carbamoyl]-5-hydroxyacetamido-2,4,6-triiodobenzoyl-N-(2,3-dihydroxypropyl)aminoacetamido}-2,4,6-triiodoisophthalamide] | 190 mosm/kg |  |  |  | 7,2 mPa s | 50,5% |  |  |
| CN(CC(=O)N(C)c1c(I)c(C(=O)N(C)CC(O)CO)c(I)c(C(=O)N(C)CC(O)CO)c1I)C(=O)c1c(I)c(NC(=O)CO)c(I)c(C(=O)NCC(O)CO)c1I (centres unmarked) [EXAMPLE 24, N,N'-bis-(2,3-dihydroxypropyl)-N,N'-dimethyl-5-{3-[N-(2,3-dihydroxypropyl)carbamoyl]-5-hydroxyacetamido-2,4,6-triiodobenzoyl-N-methylaminoacetyl-N-methylamino}-triiodo isophthalamide] | 165 mosm/kg |  |  |  | 7,1 mPa s | 51,1% |  |  |

From patent EP0571593B1, “NEW NON IONIC IODIZED AGENTS FOR X-RAY CONTRASTING, METHOD FOR PREPARING THEM AND GALENICAL COMPOSITIONS CONTAINING THEM” (CENTRO INVESTIGACION JUSTESA IMAGEN S.A., priority 1991, dated 1993)
